Entries after “also recorded” stand apart in the source; their conditions may differ.
Key:
[1] = biological target: T1, Hsp90β (Homo sapiens, UniProt P08238); assay: Fluorescence polarization assay (FITC-GDA tracer displacement), Hsp90β; format: binding; details: Table 1; concentration at which tracer 50% displaced, reported as Kd
T1 construct: 50 μL of assay buffer containing 10 nM of Hsp90, Hsp90a, Grp94, or Trap1 were added to each well

[2] = system: TRAP1-dependent client proteins NDUFS1, glutaminase-1, and Sirt3; assay: Western blot for degradation of TRAP1 client proteins; format: cell-based; details: for degradation of TRAP1-dependent client proteins NDUFS1, glutaminase-1, Sirt3: HeLa and 22Rv1 cells, 6 h treatment
[3] = system: cytosolic Hsp90 clients, Akt and Cdk4, Hsp70; assay: Western blot for cytosolic Hsp90 clients and Hsp70 induction; format: cell-based; details: HeLa and 22Rv1 cells, 6 h treatment
[4] = system: HeLa cells; assay: Seahorse XFe oxygen consumption rate, HeLa; format: cell-based; details: 6 h treatment, significant at 25 μM and 50 μM
[5] = system: 22RV1 cells; assay: Seahorse XFe oxygen consumption rate, 22Rv1; format: cell-based; details: 6 h treatment, significant at 25 μM and 50 μM
[6] = system: HeLa cells; assay: TMRM staining for mitochondrial membrane potential; format: cell-based; details: 6 h treatment, 25 μM and 50 μM
[7] = system: HeLa cells; assay: Seahorse mitochondrial function (oligomycin, FCCP, rot/AA injections), HeLa; format: cell-based; details: 6 hr pretreatment
[8] = system: 22RV1 cells; assay: Seahorse mitochondrial function (oligomycin, FCCP, rot/AA injections), 22Rv1; format: cell-based; details: 6 hr pretreatment
[9] = system: HeLa cells; assay: Cellular ATP production rate (glycolysis vs mitochondrial); format: cell-based; details: oligomycin and rot/AA injections
[10] = system: HeLa cells; assay: Mitochondrial fuel oxidation with BPTES, UK5099 and etomoxir; format: cell-based
[11] = system: TRAP1-dependent client proteins NDUFS1, glutaminase-1, and Sirt3; details: literature report; cited from earlier work

T1 sequence (P08238 whole entry): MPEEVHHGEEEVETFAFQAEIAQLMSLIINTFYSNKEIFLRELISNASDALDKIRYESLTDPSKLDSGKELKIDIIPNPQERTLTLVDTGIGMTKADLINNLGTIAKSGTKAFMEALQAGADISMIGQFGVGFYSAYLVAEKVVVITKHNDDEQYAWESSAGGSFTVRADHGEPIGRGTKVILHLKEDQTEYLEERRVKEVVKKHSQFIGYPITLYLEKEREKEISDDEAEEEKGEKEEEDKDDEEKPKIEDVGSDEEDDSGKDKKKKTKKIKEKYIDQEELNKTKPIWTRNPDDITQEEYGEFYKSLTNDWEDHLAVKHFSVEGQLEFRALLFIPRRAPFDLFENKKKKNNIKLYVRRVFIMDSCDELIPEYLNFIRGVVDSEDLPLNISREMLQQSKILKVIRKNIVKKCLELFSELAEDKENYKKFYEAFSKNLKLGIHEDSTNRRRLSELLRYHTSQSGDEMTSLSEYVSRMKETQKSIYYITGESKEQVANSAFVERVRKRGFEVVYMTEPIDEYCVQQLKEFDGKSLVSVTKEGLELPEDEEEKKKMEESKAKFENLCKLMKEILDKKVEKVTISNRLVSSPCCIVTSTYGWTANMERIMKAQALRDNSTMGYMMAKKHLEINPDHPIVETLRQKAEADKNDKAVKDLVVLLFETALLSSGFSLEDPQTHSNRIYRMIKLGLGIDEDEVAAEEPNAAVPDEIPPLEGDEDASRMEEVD

Row | Molecule | Kd [1] [nM] | degradation of TRAP1-dependent client proteins NDUFS1, glutaminase-1, Sirt3 [2] | expression of TRAP1 clients NDUFS1, glutaminase-1, Sirt3 ([2]; HeLa cells, 2 hr treatment, up to 50 μM) | degradation of cytosolic Hsp90 clients Akt and Cdk4, induction of Hsp70 [3] | oxygen consumption rate / OXPHOS [4] | oxygen consumption rate / OXPHOS [5] | TMRM fluorescence / mitochondrial membrane potential [6] | proton leak, maximal respiration, non-mitochondrial O2 consumption, spare respiratory capacity [7] | proton leak, maximal respiration, non-mitochondrial O2 consumption, spare respiratory capacity [8] | cellular ATP production via oxidative phosphorylation or glycolysis [9] | mitochondrial glutamine, fatty acid, and glucose oxidation ([10]; 6 hr treatment, 32 at 50 μM) | response of basal OCR to BPTES, UK5099, etomoxir ([10]; HeLa cells, 2 hr incubation, 50 μM) | degradation of TRAP1 client proteins (reported by Yoon, N. G. et al.) [11]
1 | O=C(c1cc(C(=O)N2Cc3ccccc3C2)c(O)cc1O)N1Cc2ccccc2C1 [Compound 4] | 1000 ± 50 | – | – | – | – | – | – | – | – | – | – | – | –
2 | O=C(c1ccc(O)c(C(=O)N2Cc3ccc(OCCC[P+](c4ccccc4)(c4ccccc4)c4ccccc4)cc3C2)c1)N1Cc2cccc(F)c2C1 [Compound 35, (3-((2-(5-(4-Fluoroisoindoline-2-carbonyl)-2-hydroxybenzoyl)isoindolin-5-yl)oxy)propyl)triphenylphosphonium hexafluorophosphate(V)] | – | dose-dependent and selective degradation | dose-dependently decreased | without inducing the degradation | statistically significant reduction of oxygen consumption; also recorded: significant dose-dependent decrease in OXPHOS; also recorded: inhibit OXPHOS | significant dose-dependent decrease in OXPHOS; also recorded: statistically significant reduction of oxygen consumption; also recorded: inhibit OXPHOS | marked decrease in TMRM fluorescence; also recorded: disrupt the mitochondrial membrane potential | decreased | decreased | alter cellular metabolism towards glycolysis | reduced OCR (oxygen consumption rate) and prevented measurement | unresponsive to BPTES, UK5099, and etomoxir | –
3 | COc1cccc2c1CN(C(=O)c1ccc(O)c(C(=O)N3Cc4ccc(OCCC[P+](c5ccccc5)(c5ccccc5)c5ccccc5)cc4C3)c1)C2 [Compound 36, (3-((2-(2-Hydroxy-5-(4-methoxyisoindoline-2-carbonyl)benzoyl)isoindolin-5-yl)oxy)propyl)triphenylphosphonium hexafluorophosphate(V)] | – | dose-dependent and selective degradation | – | without inducing the degradation | statistically significant reduction of oxygen consumption; also recorded: significant dose-dependent decrease in OXPHOS; also recorded: inhibit OXPHOS | significant dose-dependent decrease in OXPHOS; also recorded: statistically significant reduction of oxygen consumption; also recorded: inhibit OXPHOS | marked decrease in TMRM fluorescence; also recorded: disrupt the mitochondrial membrane potential | decreased | decreased | alter cellular metabolism towards glycolysis | – | – | –
4 | COC1=C(OC)C(=O)C(CCCCCCCCCC[P+](c2ccccc2)(c2ccccc2)c2ccccc2)=C(C)C1=O [MitoQ, reference compound] | – | – | – | – | – | – | marked decrease in TMRM fluorescence | decreased | decreased | – | – | – | induce the degradation of these clients
5 | gamitrinib [reference compound] | – | – | – | pan-Hsp90 inhibition | – | – | marked decrease in TMRM fluorescence | decreased | decreased | – | – | – | –

Reference: patent US20260055060A1, “USE OF (ISOINDOLIN-2-YL)(4-HYDROXY-3-(ISOINDOLINE-2-CARBONYL)PHENYL)METHANONES IN THE TREATMENT OF TUMOR NECROSIS FACTOR RECEPTOR-ASSOCIATED PROTEIN 1 DYSFUNCTION” (UNIVERSITY OF NOTRE DAME DU LAC, priority 2022, published 2026)
